SMILES strings stand for the structures. Several values for one entry are separate records, joined by “and”; a condition that tells them apart may be missing. Identical values can stand only once. Where only a bound is given, the exact number is not on record here.

As a reminder, the IC50 is the concentration that inhibits the measured activity by half. One may read the viability, T/C as the result in the treated group divided by that in the control group, in per cent.

In this test the test system is 292921-168-R tumor spheroid viability. Description: Anticancer human tumor 292921-168-R patient-derived pancreatic carcinoma cell line growth inhibition. Particulars: spheroids with HUVEC and MSC; for viability, T/C: stronger effect = lower value. Put shortly:
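Complex spheroids of malignant cells with endothelial cells and mesenchymal stem cells; agents alone or combined, from near clinical Cmax (or 10 microM if unknown) down in half-log steps, 0.25% DMSO final.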
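Further: spheroids exposed to compounds for 7 days.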

For `CNCc1ccc(-c2cc(-c3nc(-c4ccc(S(=O)(=O)C(C)C)cc4)cnc3N)on2)cc1` + CC[C@@]1(O)C(=O)OCc2c1cc1n(c2=O)Cc2cc3c(CN(C)C)c(O)ccc3nc2-1, the IC50 (curve of first compound, second compound 0.003 µM) was determined as 107 nM; the IC50 (curve of first compound, second compound 0.00949 µM) was 69.2 nM; the IC50 (curve of first compound, second compound 0.03 µM) is below 9.49 nM; the IC50 (curve of first compound, second compound 0.0949 µM) is below 9.49 nM; the IC50 (curve of first compound, second compound 0.3 µM) was below 9.49 nM. Besides, the viability, T/C by setting is: (second compound 0.003 µM, first compound 0.00949 µM) 92.2%; (second compound 0.003 µM, first compound 0.03 µM) 77.3%; (second compound 0.003 µM, first compound 0.0949 µM) 55.9%; (second compound 0.003 µM, first compound 0.3 µM) 21.1%; (second compound 0.003 µM, first compound 0.949 µM) 16.6%; (second compound 0.003 µM, first compound 3 µM) 8.99%. The viability, T/C by setting is: (second compound 0.00949 µM, first compound 0.00949 µM) 73.1%; (second compound 0.00949 µM, first compound 0.03 µM) 74.7%; (second compound 0.00949 µM, first compound 0.0949 µM) 41%; (second compound 0.00949 µM, first compound 0.3 µM) 16.7%; (second compound 0.00949 µM, first compound 0.949 µM) 15.6%; (second compound 0.00949 µM, first compound 3 µM) 10.3%. Moreover, the viability, T/C by setting is: (second compound 0.03 µM, first compound 0.00949 µM) 35.9%; (second compound 0.03 µM, first compound 0.03 µM) 32.9%; (second compound 0.03 µM, first compound 0.0949 µM) 27%; (second compound 0.03 µM, first compound 0.3 µM) 14.7%; (second compound 0.03 µM, first compound 0.949 µM) 13.4%; (second compound 0.03 µM, first compound 3 µM) 9.47%. The viability, T/C (second compound 0.0949 µM, first compound 0.00949 µM) was 12.6%; the viability, T/C (second compound 0.0949 µM, first compound 0.03 µM) was 15%; the viability, T/C (second compound 0.0949 µM, first compound 0.0949 µM) was 11.2%; the viability, T/C (second compound 0.0949 µM, first compound 0.3 µM) was 10.1%; the viability, T/C (second compound 0.0949 µM, first compound 0.949 µM) is 10.3%; the viability, T/C (second compound 0.0949 µM, first compound 3 µM) was 2.13%. Also, the viability, T/C was 4.63% (second compound 0.3 µM, first compound 0.00949 µM); 4.83% (second compound 0.3 µM, first compound 0.03 µM); 4.59% (second compound 0.3 µM, first compound 0.0949 µM); 5.23% (second compound 0.3 µM, first compound 0.3 µM); 6.72% (second compound 0.3 µM, first compound 0.949 µM); 0.97% (second compound 0.3 µM, first compound 3 µM).

For the molecule `COc1cc(C)[nH]c(=O)c1CN1CCc2c(Cl)cc(C(OC)C3COC3)c(Cl)c2C1=O` (stereo unspecified) + Cn1nnc2c(C(N)=O)ncn2c1=O, the half-maximal inhibitory concentration (IC50) (curve of first compound, second compound 1 µM) was above 10000 nM; the IC50 (curve of first compound, second compound 3.16 µM) is above 10000 nM; the IC50 (curve of first compound, second compound 10 µM) was above 10000 nM; the IC50 (curve of first compound, second compound 31.6 µM) is above 10000 nM; the IC50 (curve of first compound, second compound 100 µM) is above 10000 nM. Besides, the viability, T/C is 94.7% (second compound 1 µM, first compound 0.0316 µM); 94.7% (second compound 1 µM, first compound 0.1 µM); 95.4% (second compound 1 µM, first compound 0.316 µM); 88.7% (second compound 1 µM, first compound 1 µM); 81.6% (second compound 1 µM, first compound 3.16 µM); 72.6% (second compound 1 µM, first compound 10 µM). Also, the viability, T/C runs as follows: (second compound 3.16 µM, first compound 0.0316 µM) 102%; (second compound 3.16 µM, first compound 0.1 µM) 100%; (second compound 3.16 µM, first compound 0.316 µM) 93.6%; (second compound 3.16 µM, first compound 1 µM) 79.8%; (second compound 3.16 µM, first compound 3.16 µM) 88.2%; (second compound 3.16 µM, first compound 10 µM) 84.5%. Also, the viability, T/C reads like this: (second compound 10 µM, first compound 0.0316 µM) 93.4%; (second compound 10 µM, first compound 0.1 µM) 87.4%; (second compound 10 µM, first compound 0.316 µM) 98%; (second compound 10 µM, first compound 1 µM) 80.2%; (second compound 10 µM, first compound 3.16 µM) 84.4%; (second compound 10 µM, first compound 10 µM) 75.2%. For the same molecule, the viability, T/C was 91.5% (second compound 31.6 µM, first compound 0.0316 µM); 94.2% (second compound 31.6 µM, first compound 0.1 µM); 89.4% (second compound 31.6 µM, first compound 0.316 µM); 85.1% (second compound 31.6 µM, first compound 1 µM); 78.5% (second compound 31.6 µM, first compound 3.16 µM); 80.2% (second compound 31.6 µM, first compound 10 µM). The viability, T/C is, setting by setting: (second compound 100 µM, first compound 0.0316 µM) 89.5%; (second compound 100 µM, first compound 0.1 µM) 91.1%; (second compound 100 µM, first compound 0.316 µM) 88.1%; (second compound 100 µM, first compound 1 µM) 78%; (second compound 100 µM, first compound 3.16 µM) 75.9%; (second compound 100 µM, first compound 10 µM) 82%.

Take `CNCc1ccc(-c2cc(-c3nc(-c4ccc(S(=O)(=O)C(C)C)cc4)cnc3N)on2)cc1`: the viability, T/C reads like this: (compound 0.00949 µM) 101% and 106% and 104%; (compound 0.03 µM) 101% and 94.1% and 95.1%; (compound 0.0949 µM) 79.2% and 80% and 91.3%; (compound 0.3 µM) 49.7% and 37.8% and 38.7%; (compound 0.949 µM) 26.5% and 25.3% and 20.8%; (compound 3 µM) 11.9% (2×) and 13.2%. Further, the IC50 (curve of compound) was 307 nM and 226 nM and 236 nM.

In the case of `COc1cc(C)[nH]c(=O)c1CN1CCc2c(Cl)cc(C(OC)C3COC3)c(Cl)c2C1=O` (stereo unspecified), the viability, T/C is 108% and 97.3% and 113% (compound 0.0316 µM); 112% and 106% and 113% (compound 0.1 µM); 115% and 92.9% and 89.7% (compound 0.316 µM); 109% and 95.4% and 97.2% (compound 1 µM); 90.3% and 89.2% and 90.4% (compound 3.16 µM); 101% and 89.8% and 75.1% (compound 10 µM). Besides, the IC50 (curve of compound) was above 10000 nM.

As to `O=C(c1cc(Cc2n[nH]c(=O)c3ccccc23)ccc1F)N1CCN(C(=O)C2CC2)CC1`, the viability, T/C (compound 0.0949 µM) is 91.5% and 96.1% and 103%; the viability, T/C (compound 0.3 µM) is 102% and 99.1% and 96%; the viability, T/C (compound 0.949 µM) is 91.7% and 100% and 98.5%; the viability, T/C (compound 3 µM) is 87.8% and 89.6% and 92.7%; the viability, T/C (compound 9.49 µM) was 66.9% and 61.2% and 64.2%; the viability, T/C (compound 30 µM) is 39.4% and 35.8% and 35.6%. For the same molecule, the IC50 (curve of compound) was 19200 nM and 15700 nM and 16800 nM.
